Active and inactive are the calls of the source.
Columns and labels:
[1] = target: T1, Protein RecA (Mycobacterium tuberculosis, UniProt P9WHJ3); test: Fluorescence Cell-Free Homogeneous Dose Retest to Identify Inhibitors of RecA-Intein Splicing Activity. [Related pubchem assays (depositor defined):AID2097, AID2223, AID489010, AID492950]; type: functional
T1 sequence (P9WHJ3 whole entry): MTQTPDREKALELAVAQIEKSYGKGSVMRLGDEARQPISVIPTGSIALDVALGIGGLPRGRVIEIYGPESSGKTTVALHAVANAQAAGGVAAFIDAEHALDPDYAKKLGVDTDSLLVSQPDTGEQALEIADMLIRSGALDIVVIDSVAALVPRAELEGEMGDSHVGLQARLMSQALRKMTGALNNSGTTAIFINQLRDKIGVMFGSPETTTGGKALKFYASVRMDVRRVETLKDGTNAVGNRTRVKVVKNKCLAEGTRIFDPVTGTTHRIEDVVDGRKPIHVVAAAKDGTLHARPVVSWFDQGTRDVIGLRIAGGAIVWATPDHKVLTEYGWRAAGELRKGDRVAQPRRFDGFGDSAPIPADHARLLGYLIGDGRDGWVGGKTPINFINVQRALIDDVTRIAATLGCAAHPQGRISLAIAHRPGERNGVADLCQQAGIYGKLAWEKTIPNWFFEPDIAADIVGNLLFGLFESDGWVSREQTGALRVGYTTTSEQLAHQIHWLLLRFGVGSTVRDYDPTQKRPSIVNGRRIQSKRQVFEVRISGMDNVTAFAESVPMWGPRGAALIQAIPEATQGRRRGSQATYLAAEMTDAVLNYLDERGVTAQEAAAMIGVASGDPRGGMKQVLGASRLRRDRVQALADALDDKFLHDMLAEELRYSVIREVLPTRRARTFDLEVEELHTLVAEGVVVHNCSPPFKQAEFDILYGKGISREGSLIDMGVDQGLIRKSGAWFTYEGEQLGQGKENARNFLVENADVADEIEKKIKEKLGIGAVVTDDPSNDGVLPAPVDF

[2] = target: T2, Hexokinase HKDC1 (Homo sapiens, UniProt Q2TB90); test: analog inhibition of human HKDC1 activity – biochemical, set 2, SAR follow-up (AID 588355); type: functional
T2 sequence (Q2TB90 whole entry): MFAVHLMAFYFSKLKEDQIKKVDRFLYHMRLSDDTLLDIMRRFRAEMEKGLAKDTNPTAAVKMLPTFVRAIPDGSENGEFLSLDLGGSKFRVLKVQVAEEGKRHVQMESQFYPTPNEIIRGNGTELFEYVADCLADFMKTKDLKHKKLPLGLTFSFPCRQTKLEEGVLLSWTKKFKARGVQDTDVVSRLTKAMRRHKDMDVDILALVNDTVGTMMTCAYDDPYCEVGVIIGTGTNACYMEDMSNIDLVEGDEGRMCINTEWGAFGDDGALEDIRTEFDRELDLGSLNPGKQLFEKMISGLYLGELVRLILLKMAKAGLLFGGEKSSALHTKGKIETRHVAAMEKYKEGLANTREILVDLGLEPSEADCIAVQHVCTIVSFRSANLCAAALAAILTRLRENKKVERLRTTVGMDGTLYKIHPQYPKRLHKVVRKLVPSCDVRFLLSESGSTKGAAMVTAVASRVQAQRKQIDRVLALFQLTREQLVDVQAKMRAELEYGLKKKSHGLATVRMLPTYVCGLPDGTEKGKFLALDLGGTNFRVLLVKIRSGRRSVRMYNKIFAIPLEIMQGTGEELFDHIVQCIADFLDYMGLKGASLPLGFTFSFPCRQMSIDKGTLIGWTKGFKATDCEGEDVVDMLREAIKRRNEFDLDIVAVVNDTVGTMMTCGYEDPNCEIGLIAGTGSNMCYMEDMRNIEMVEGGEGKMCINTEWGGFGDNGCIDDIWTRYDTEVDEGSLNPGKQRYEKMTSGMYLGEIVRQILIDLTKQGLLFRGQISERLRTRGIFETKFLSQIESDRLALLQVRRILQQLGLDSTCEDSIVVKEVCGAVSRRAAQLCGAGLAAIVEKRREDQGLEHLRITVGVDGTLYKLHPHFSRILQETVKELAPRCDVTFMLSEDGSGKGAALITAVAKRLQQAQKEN

[3] = target: Cystic fibrosis transmembrane conductance regulator/Golgi-associated PDZ and coiled-coil motif-containing protein (Homo sapiens, UniProt P13569+Q9HD26); test: potency against CAL PDZ-peptide interaction – biochemical, fluorescence polarization, Cerulean-tagged CAL PDZ, cherry-picks, dose response (AID 504773)
[4] = target: T3, Caspase-6 (Homo sapiens, UniProt P55212); test: inhibition of CASP6 peptide cleavage – biochemical, VEID-R110 fluorescence, cherry-pick, dose response (AID 720632)
T3 sequence (P55212 whole entry): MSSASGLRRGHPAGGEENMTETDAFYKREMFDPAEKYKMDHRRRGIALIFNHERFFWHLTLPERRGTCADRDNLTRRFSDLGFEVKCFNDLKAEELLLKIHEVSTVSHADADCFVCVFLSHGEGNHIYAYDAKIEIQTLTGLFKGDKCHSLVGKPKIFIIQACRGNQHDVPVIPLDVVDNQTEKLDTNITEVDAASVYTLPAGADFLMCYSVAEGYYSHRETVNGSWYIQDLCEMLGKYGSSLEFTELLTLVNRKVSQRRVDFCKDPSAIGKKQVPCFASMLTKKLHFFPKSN

[5] = blockers of CAL PDZ ligand groove binding – biochemical, fluorescence polarization, untagged CAL PDZ, cherry-pick, dose response (AID 602267); type: functional
[6] = target: T2, Hexokinase HKDC1; test: SAR analysis of small molecule inhibitors of hexokinase domain containing I (HKDC1) - Set 3. [Related pubchem assays (depositor defined):AID493160, AID493190]; type: functional
[7] = target: T4, Replicative DNA helicase DnaB (Mycobacterium tuberculosis, UniProt P9WMR3); test: DnaB intein splicing inhibitors, dose response, biochemical, cell-free fluorescence (AID 449749); type: functional
T4 sequence (P9WMR3 whole entry): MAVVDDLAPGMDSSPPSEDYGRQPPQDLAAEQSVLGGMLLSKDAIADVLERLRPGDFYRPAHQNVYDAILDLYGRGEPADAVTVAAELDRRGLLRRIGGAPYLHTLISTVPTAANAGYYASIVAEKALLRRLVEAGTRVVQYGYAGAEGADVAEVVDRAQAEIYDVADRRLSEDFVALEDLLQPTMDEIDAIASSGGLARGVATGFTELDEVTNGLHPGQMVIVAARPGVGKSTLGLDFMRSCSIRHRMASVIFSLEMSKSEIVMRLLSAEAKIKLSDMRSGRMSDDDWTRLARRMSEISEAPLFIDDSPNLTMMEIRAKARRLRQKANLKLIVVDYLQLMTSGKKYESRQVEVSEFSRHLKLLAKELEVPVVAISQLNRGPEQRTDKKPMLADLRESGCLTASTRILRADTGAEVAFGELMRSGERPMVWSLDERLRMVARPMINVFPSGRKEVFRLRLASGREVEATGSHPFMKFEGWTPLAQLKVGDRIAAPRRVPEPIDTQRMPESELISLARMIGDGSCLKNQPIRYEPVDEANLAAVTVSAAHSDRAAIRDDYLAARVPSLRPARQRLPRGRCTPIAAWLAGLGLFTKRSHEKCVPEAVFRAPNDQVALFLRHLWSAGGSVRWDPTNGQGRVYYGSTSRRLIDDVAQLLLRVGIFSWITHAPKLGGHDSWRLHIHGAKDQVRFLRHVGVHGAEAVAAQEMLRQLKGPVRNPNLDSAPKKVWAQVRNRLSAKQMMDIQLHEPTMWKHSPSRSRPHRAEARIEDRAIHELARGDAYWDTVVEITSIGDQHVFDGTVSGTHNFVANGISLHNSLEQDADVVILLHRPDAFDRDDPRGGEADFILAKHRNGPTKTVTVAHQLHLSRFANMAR

[8] = target: T2, Hexokinase HKDC1; test: inhibition of HKDC1 glucose phosphorylation – biochemical, W721R variant, dose response (AID 504729); type: functional
[9] = target: T5, Tyrosyl-DNA phosphodiesterase 2 (Homo sapiens, UniProt O95551); test: potency against TDP2 phosphodiesterase activity – biochemical, epi absorbance, IC50, dose response (AID 743297)
T5 sequence (O95551 whole entry): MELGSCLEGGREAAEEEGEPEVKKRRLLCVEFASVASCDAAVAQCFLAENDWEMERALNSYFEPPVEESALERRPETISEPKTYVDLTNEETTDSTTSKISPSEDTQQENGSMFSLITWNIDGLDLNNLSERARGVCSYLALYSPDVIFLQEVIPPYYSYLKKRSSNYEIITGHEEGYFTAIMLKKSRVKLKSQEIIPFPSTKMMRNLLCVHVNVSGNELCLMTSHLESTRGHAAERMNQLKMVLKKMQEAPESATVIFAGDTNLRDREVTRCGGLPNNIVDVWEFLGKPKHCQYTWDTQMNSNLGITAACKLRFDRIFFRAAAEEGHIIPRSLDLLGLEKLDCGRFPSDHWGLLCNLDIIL

Sequence of Cystic fibrosis transmembrane conductance regulator/Golgi-associated PDZ and coiled-coil motif-containing protein (P13569 whole entry, other chains not shown): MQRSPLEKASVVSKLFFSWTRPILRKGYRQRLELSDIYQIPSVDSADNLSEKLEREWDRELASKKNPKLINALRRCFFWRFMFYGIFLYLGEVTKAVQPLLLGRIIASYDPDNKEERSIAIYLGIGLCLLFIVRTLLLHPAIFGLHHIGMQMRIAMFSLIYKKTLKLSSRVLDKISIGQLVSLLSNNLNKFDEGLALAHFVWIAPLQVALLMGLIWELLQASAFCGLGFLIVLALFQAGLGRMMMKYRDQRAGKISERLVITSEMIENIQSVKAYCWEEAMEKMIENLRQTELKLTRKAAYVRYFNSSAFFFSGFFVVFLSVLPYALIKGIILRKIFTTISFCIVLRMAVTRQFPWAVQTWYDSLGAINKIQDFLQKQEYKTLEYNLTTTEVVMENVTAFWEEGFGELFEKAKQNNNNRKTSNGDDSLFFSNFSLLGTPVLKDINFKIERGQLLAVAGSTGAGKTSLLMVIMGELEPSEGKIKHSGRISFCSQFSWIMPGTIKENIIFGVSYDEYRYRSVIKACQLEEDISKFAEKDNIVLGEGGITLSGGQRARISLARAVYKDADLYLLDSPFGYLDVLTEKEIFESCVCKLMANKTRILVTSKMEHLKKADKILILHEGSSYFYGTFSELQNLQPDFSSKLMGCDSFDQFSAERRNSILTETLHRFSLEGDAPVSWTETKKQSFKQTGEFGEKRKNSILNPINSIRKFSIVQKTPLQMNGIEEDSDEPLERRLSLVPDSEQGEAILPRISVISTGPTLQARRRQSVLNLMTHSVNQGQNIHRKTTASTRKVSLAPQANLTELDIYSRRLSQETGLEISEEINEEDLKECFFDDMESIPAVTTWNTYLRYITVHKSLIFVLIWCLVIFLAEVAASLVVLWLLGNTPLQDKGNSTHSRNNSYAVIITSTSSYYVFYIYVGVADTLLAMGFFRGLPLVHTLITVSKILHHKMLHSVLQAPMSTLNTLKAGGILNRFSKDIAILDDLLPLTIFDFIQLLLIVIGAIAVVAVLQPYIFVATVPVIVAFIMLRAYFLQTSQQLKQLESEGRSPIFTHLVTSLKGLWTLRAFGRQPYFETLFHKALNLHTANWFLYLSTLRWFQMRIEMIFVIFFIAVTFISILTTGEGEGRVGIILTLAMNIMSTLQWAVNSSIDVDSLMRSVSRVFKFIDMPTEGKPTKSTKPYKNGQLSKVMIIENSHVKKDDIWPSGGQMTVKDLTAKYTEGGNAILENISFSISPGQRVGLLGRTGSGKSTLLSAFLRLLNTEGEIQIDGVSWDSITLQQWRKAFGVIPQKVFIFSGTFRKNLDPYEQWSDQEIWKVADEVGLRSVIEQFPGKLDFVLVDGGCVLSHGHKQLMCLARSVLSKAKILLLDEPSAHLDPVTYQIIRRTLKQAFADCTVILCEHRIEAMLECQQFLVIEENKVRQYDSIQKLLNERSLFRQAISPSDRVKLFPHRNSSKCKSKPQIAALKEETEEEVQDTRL

## CC(=O)NC1C(=O)N(CCN2CCOCC2)c2ccc(Br)cc21 (centres undefined)
[1]
  EC50: 11 µM (active)
[2]
  IC50: 8.67 µM (active)
[3]
  AC50: 24.8 µM (active)
[4]
  AC50: 12.6 µM (active)
[5]
  AC50: 82.6 µM (active)
[6]
  IC50: 6.88 µM (active)
[7]
  AC50: 14.3 µM (active)
[8]
  IC50: 5.24 µM (active)
[9]
  IC50: 16.3 µM (inactive)
